Experimental data reported in paper PMC11887451, “Leveraging Immunogenic Cell Death to Enhance the Immune Response against Malignant Pleural Mesothelioma Tumors” (Journal of the American Chemical Society, 2025).

What was measured:
[1] = tested on: murine malignant mesothelioma cell line AB12; test: MTT cytotoxicity assay, 72 h, AB12; format: cell-based, mouse; conditions: exposure time 72 h
[2] = tested on: human malignant mesothelioma cell line JU77; test: MTT cytotoxicity assay, 72 h, JU77; format: cell-based; conditions: exposure time 72 h
[3] = tested on: human malignant mesothelioma cell line LO68; test: MTT cytotoxicity assay, 72 h, LO68; format: cell-based; conditions: exposure time 72 h
Excerpt: (§1) Human malignant mesothelioma cancer cell lines JU77 and LO68 were obtained from Cell Bank Australia (Children's Medical Research Institute, Westmead, Australia). Mouse malignant mesothelioma cancer cell line AB12, human nonmalignant mesothelioma cancer cell line Met5A (mesothelial cells), mouse macrophage cell line J774 and human monocytic cell line THP-1 were obtained from American Type Culture Collection (ATCC) (Rockville, MD, USA). Human malignant mesothelioma cell lines VMC23 (epithelial), Meso82 (sarcomatous), Meso92 (biphasic), were kindly provided by Prof. Walter Berger (Medical University of Vienna). All cells except for J774 were cultured in RPMI and J774 cells were cultured in DMEM. Both types of media were supplemented with 10% FBS and 1% penicillin-streptomycin (10,000 U/mL). Cells were grown in tissue culture flasks (75 cm2 and 25 cm2, SPL Life Sciences Co., Ltd., Korea). All cell lines were grown at 37 °C in a humidified atmosphere of 95% air and 5% CO 2 and passaged when they reached 80–90% confluency. All Au stock solutions were prepared in 1% DMSO in the respected medium, ensuring that cell viability was not inhibited.
(§2) The cytotoxicity of compounds was determined using an MTT colorimetric test. The cells were harvested from culture flasks by trypsinization and seeded into Cellstar 96 -well microculture plates (Greiner Bio -One) at the seeding density of 6000 cells per well (6 × 10^4 cells/mL). After
(§3) the cells were allowed to resume exponential growth for 16 h, they were exposed to drugs at
(§4) different concentrations in media for 72 h. The drugs were diluted in a complete medium at the desired concentration added to each well (100 μL) and serially diluted in other wells. After exposure for 72 h, the media was replaced with MTT in media (5 mg/mL, 100 μL/well) and
(§5) incubated for an additional 50 min. Subsequently, the medium was aspirated, and the purple formazan crystals formed in viable cells were dissolved in DMSO (100 μL/well). Optical densities were measured at 570 nm using a BioTek Synergy H1 microplate and MultiskanTM SkyHigh plate readers. The quantity of viable cells was expressed in terms of treated/control (T/C) values in comparison to untreated control cells, and 50% inhibitory concentrations (IC 50) were calculated from concentration-effect curves by interpolation. An evaluation was based on means from at least three independent experiments, each comprising three replicat es per

[4] = tested on: patient-derived VMC23 cell line (epithelioid MPM); test: MTT cytotoxicity assay, 72 h, VMC23; format: cell-based, human; conditions: exposure time 72 h
Excerpt: as §1, §2, §3, §4, §5

[5] = tested on: patient-derived Meso84 cell line (sarcomatoid MPM); test: MTT cytotoxicity assay, 72 h, Meso84; format: cell-based, human; conditions: exposure time 72 h
Excerpt: as §1, §2, §3, §4, §5

[6] = tested on: patient-derived Meso92 cell line (biphasic MPM); test: MTT cytotoxicity assay, 72 h, Meso92; format: cell-based, human; conditions: exposure time 72 h
Excerpt: Cell lines and culture conditions
(§6) Mouse malignant mesothelioma cancer cell line AB12, human nonmalignant mesothelioma cancer cell line Met5A (mesothelial cells), mouse macrophage cell line J774 and human monocytic cell line THP-1 were obtained from American Type Culture Collection (ATCC) (Rockville, MD, USA). Human malignant mesothelioma cell lines VMC23 (epithelial), Meso82 (sarcomatous), Meso92 (biphasic), were kindly provided by Prof. Walter Berger (Medical University of Vienna). All cells except for J774 were cultured in RPMI and J774 cells were cultured in DMEM. Both types of media were supplemented with 10% FBS and 1% penicillin-streptomycin (10,000 U/mL). Cells were grown in tissue culture flasks (75 cm2 and 25 cm2, SPL Life Sciences Co., Ltd., Korea). All cell lines were grown at 37 °C in a humidified atmosphere of 95% air and 5% CO 2 and passaged when they reached 80–90% confluency. All Au stock solutions were prepared in 1% DMSO in the respected medium, ensuring that cell viability was not inhibited. The Au concentration in the stock solutions was confirmed through inductively coupled plasma optical emission spectrometry. The stock solution of pemetrexed (10 mM) was prepared in Milli -Q water.
Inhibition of c ell viability assay
as §2, §3, §4, §5

[7] = tested on: human nonmalignant mesothelioma cell line Met5A; test: MTT cytotoxicity assay, 72 h, Met5A; format: cell-based; conditions: exposure time 72 h
Excerpt: Cell lines and culture conditions
as §6
Inhibition of c ell viability assay
as §2, §3, §4, §5

[8] = Aqueous stability by RP-HPLC in 1:1 DMSO:H2O over 72 h; format: physicochemical; conditions: room temperature
Method: The aqueous stability of the Au(III)–DTC complexes was assessed by monitoring their RP-HPLC profiles in a 1:1 DMSO:H2O mixture at room temperature over a 3-day period (Supplementary Figures 112–146).
Determination of the purity of cyclometalated Au( III) complexes was performed using analytical HPLC on a Shimadzu Prominence System equipped with a DGU -20A3 Degasser, two LC-20AD Liquid Chromatography Pump, a SPD-20A UV/Vis Detector and a Shim Pack GVP-ODS 2.0 mm 18 column ([…], 120Å, 250 mm × 4.60 mm i.d.). The analysis was conducted at r.t. with a flow rate of 1.0 mL/min and detection at 254 and 280 nm. Mobile phase A was H2O + 0.1% Trifluoroacetic acid (TFA) while mobile phase B is ACN + 0.1% TFA. The gradient program parameters were as follows: mobil e phase B was increased from 30 to 95% over 30 min. 95% mobile phase B was maintained for 10 min, 95 to 30% over 5 min, and finally returned to 30% for 10 min for the next analysis. LogP values of the complexes were calculated based on the HPLC retention times derived from the calibration standard curve. The calibration standard curve was established using 2-butanone, phenylacetonitrile, anisole, ethyl benzoate, benzophenone, diphenyl ether and triphenylamine. To conduct an aqueous stability study, the HPLC profiles of the sample stock solutions were diluted to a 1:1 ratio of DMSO to […]
water. […]

[9] = tested on: AB12 cells phagocytosed by J774 macrophages; test: Phagocytosis assay, flow cytometry; format: cell-based, mouse; conditions: AB12 treated 100 min at 5 × IC50 (72 h), 16 h with J774 macrophages
Method: page 21: incubated for an additional 50 min. Subsequently, the medium was aspirated, and the purple formazan crystals formed in viable cells were dissolved in DMSO (100 μL/well). Optical densities were measured at 570 nm using a BioTek Synergy H1 microplate and MultiskanTM SkyHigh plate readers. The quantity of viable cells was expressed in terms of treated/control (T/C) values in comparison to untreated control cells, and 50% inhibitory concentrations (IC 50) were calculated from concentration-effect curves by interpolation. An evaluation was based on means from at least three independent experiments, each comprising three […] concentration level. For macrophage analyses, the acute monocytic leukemia -derived THP-1 cell line (ATCC) was used as a model. 1 × 104 THP-1 cells were seeded per well in 96-well plates in RPMI-1640 with 10% FCS and treated for 24 h with 75 nM phorbol 12-myristate 13-acetate (PMA, Sigma- Aldrich) to induce M0 macrophage differentiation. After the differentiation period, PMA was replaced by fresh culture medium to recover for 2h. Afterwards increasing concentrations of 1G, 5A, 5B and 5G were added for a 72-h continuous drug exposure assay. In parallel, the […] were allowed to attach for 24 h. Gold compounds were added to the cells as described for the THP-1 model above. After the incubation period of 72 h, cell viability was determined by an MTT-based assay (EU4U, Biomedica) following the instructions of the manufacturer. DMSO had not impact on the cell viability at the concentrations used. Flow cytometry experiments Phagocytosis assay […] with RPMI, centrifuged (300 × g, 5 min) and labelled with CellTracker Red CMTPX Dye (0.72 μM for 5 × 10^5 cells) at 37°C for 30 minutes in 1 ml of serum -free RPMI. Following S21 page 22: centrifugation of the cells (300 × g, 5 min), 5 ml of fresh RPMI was introduced, and the cells were seeded at a density of 5 x 10^5 cells per well into Cellstar 6-well plates (Greiner Bio-One) (1 ml per well). J774 macrophages (70-80% confluence in a T75 flask) were detached by scraping, centrifuged (300 × g, 5 min). The medium was substituted with 1 ml of DMEM containing CellTracker Green CMFDA (1 μM) and the J774 macrophages were stained at 37°C for 30 minutes. Following centrifugation of the J774 macrophages (300 × g, 5 min), 5 ml of fresh DMEM was introduced, and the macrophages were seeded into a 100 cm2 petri dish (SPL Life Sciences, Korea). After 24 h, the media in AB12 cells was replaced with 1 ml of fresh […] for 100 minutes. After removing the drug-containing media, the cells were trypsinized (0.5 ml), neutralized with 1 ml of RPMI, centrifuged (300 × g, 5 min) and counted. From each sample, […] cells into 6-well plates. AB12 cells and J774 macrophages were co-incubated for 16 h at 37°C and 5% CO2, detached by scraping, centrifuged (300 × g, 5 min), and the pellets were resuspended in PBS for immediate analysis using a CytoFLEX Flow Cytometer (Beckman Coulter, USA). The percentage of phagocytosis was determined by calculating the number of double-positive macrophages (Q2) over the total number of macrophages (Q2 + Q3). […] Annexin V/PI assay AB12 cells were seeded into Cellstar 6-well plates (Greiner Bio-One) at a density of 5 × 10^5 cells/well (1 ml per well). […] The medium was removed and cells were washed with PBS (2 × 1 mL). Afterwards the cells were […] S22

[10] = tested on: AB12 cells in BALB/c mice; test: In vivo vaccination model; design: species or system mouse; conditions: within the first 30 days after vaccination, n = 8
Excerpt: Initially, AB12 cells underwent pretreatment with varying concentrations of Au(III) complexes, and the induced cell death and release of desired ICD biomarkers were monitored over time. Upon reaching a cell death rate of 65%–75%, BALB/c mice (n = 8) were subcutaneously injected in the left flank with a vaccine containing 3 × 10^5 of live/dying/dead cells, while the vehicle group received injections of PBS. Seven days postvaccine administration, the immunized mice were rechallenged by inoculating the same number of live AB12 cells (without any prior treatment) into the right flanks (Figure 5A). The progression of tumor growth on the right flanks was monitored using a caliper.
AB12 cells were seeded into Cellstar 24-well plates (Greiner Bio-One) at a density of 1.8 × 104
cells/ml (1 ml per well) and allowed to grow exponentially for 16 hours. Subsequently, the
medium was replaced with 1 ml of fresh medium containing compounds of interest at
predetermined concentrations (with a minimum of 4 wells per treatment condition). These
concentrations were selected to induce 65-75% cell death.
Subsequently, the culture
medium was aspirated, and the cells were washed twice with 1 mL of PBS. The cell
concentration was adjusted to 3 × 10^5 cells (including dead/dying/live cells) per 100 μL of PBS,
and the ratio of dead/live cells was assessed using the Invitrogen Countess 3 cell counter. In
the subsequent experiment, BALB/c mice (8 mice per group) were subcutaneously injected
with 0.1 mL of AB12 cells (3 × 10^5 cells/mL, including dead/dying/live cells) or the
corresponding vehicle (PBS) on the left flank. Tumor growth was monitored daily.
After 7 days, the mice were subcutaneously injected with
0.1 mL of AB12 cells (3 × 10^5 cells/mL, live cells) on the right flank. Regular measurements
of body weights and tumor sizes were taken. Mice that developed palpable tumors were
euthanized for further analysis.

[11] = tested on: calreticulin (CRT) in AB12 cells; conditions: AB12, 5 × IC50, 120 min
Method: emission was detected at 525/40 nm for FITC (CRT).
Confocal microscopy experiments
AB12 cells were seeded into confocal dishes (Biosharp) at a density of 3 × 10^5 cells/dish (1
mL per dish). The cells were allowed to resume exponential growth for 16 h. Afterwards, the
cells were incubated with a fresh medium containing compounds at their respective 5 × IC50
concentrations for 2 h at 37°C. After the treatment, the dishes were washed with 1 ml of PBS,
fixed in 4% paraformaldehyde in PBS at r. t. for 20 min and washed twice with 1 mL of PBS.
The dishes were then incubated with CRT antibody conjugated with Alexa Fluor 488 (1:200 in
the dishes were incubated with Wheat Germ Agglutinin conjugated with Alexa Fluor 633 dye
(W21404, Invitrogen) at r. t. in darkness for 30 min, washed with 1 mL of PBS, stained with
propidium iodide (PI) for 10 min at r. t. in darkness and washed with 1 mL of PBS. Samples
were stored in 1 mL of PBS. The confocal images were acquired by Laser Confocal Scanning

[12] = tested on: BALB/c mice; conditions: i.p., 12 injections, 5F 2.5 mg/kg
[13] = tested on: calreticulin (CRT) in AB12 cells; test: CRT detection, flow cytometry; format: cell-based, mouse; conditions: AB12, 5 × IC50 (72 h), 120 min
Method: page 23: concentrations for 100 min at 37 °C. After the treatment, the supernatant was collected in 2 mL microtubes, centrifuged (300 × g, 5 min) and the media was removed. The adherent cells were then trypsinized with 500 μL of trypsin at 37 °C for 5 min. Next, 1 mL of medium was added to neutralize trypsin and the resulting cell suspension was combined with the supernatant. The wells were washed with 200 μL of PBS, which was also combined with the supernatant. The combined solutions were centrifuged (300 × g, 5 min), and the resulting pellets were washed with PBS (2 × 1 mL) and resuspended in 200 μL of Annexin V binding buffer. […] Cell death was evaluated by flow cytometry using a CytoFLEX Flow Cytometer equipped with a 488 nm laser and a 638 nm laser (Beckman Coulter, Brea, CA, USA). The cells were excited by the 488 nm laser, and fluorescence emissions were detected at 525/40 nm for FITC (Annexin V) and at 610/20 nm for ECD (PI). […] The percentage of necrosis was determined by calculating the sum of cells in Q1 and Q2. […] Next, cells were incubated with CRT antibody conjugated with AlexaFluor S23 page 24: 488 (62304S, Cell Signaling Technology) at 4 °C overnight, washed twice with PBS, reconstituted in 500 µL of PBS and analyzed by flow cytometry using a CytoFLEX Flow Cytometer equipped with a 488 nm laser and a 638 nm laser (Beckman Coulter, Brea, CA, USA). […]

[14] = physchem

Compound: CCCC[N+](CCCC)=C1[S][Au-]2([S]1)[c]1ccccc1C(OC)c1cccc[n+]12.F[P-](F)(F)(F)(F)F (racemic) [4C]
- IC50 [1]: 3100 ± 400 nM
- IC50 [2]: 1600 ± 100 nM
- IC50 [3]: 3100 ± 300 nM
- IC50 [4]: 2500 ± 200 nM
- IC50 [5]: 2700 ± 800 nM
- IC50 [6]: 4500 ± 800 nM
- IC50 [7]: 3000 ± 700 nM
- hydrolysis over the 72-h period [8]: less than 10%
- minor RP-HPLC peak, share of the total area after 24 h ([8]; 24 h): 2%
- minor RP-HPLC peak, share of the total area after 72 h ([8]; 72 h): 8%
- phagocytosis rate [9]: 37% ± 12%
- mice that developed tumors after vaccination [10]: ≈ 50%
- CRT translocation, confocal microscopy [11]: translocation of CRT to the plasma membrane

Compound: F[P-](F)(F)(F)(F)F.c1cc[c]2c(c1)Nc1cccc[n+]1[Au-]21[S]C(=[N+]2CCCCC2)[S]1 (centres unmarked) [5H]
- IC50 [1]: 100 ± 10 nM
- IC50 [2]: 400 ± 90 nM
- IC50 [3]: 440 ± 90 nM
- IC50 [4]: 940 ± 270 nM
- IC50 [5]: 100 ± 20 nM
- IC50 [6]: 820 ± 180 nM
- IC50 [7]: 130 ± 10 nM
- signs of toxicity, daily injections ([12]; 5A and 5H 4 mg/kg): led to toxicity in mice
- deaths, daily injections ([12]; 5H 4 mg/kg): death of two mice

Compound: N.N.[Cl][Pt][Cl] [Cisplatin, cisplatin, reference compound]
- IC50 [1]: 4500 ± 800 nM
- IC50 [2]: 4200 ± 500 nM
- IC50 [3]: 20000 ± 6000 nM
- IC50 [4]: 3600 ± 1000 nM
- IC50 [5]: 17000 ± 2000 nM
- IC50 [6]: 4000 ± 900 nM
- IC50 [7]: 2000 ± 500 nM
- phagocytosis / ICD response (in words) [9]: failed to initiate any ICD response
- CRT expression (in words) [13]: no changes in CRT expression

Compound: COc1cccc2c1C(=O)c1c(O)c3c(c(O)c1C2=O)C[C@@](O)(C(=O)CO)C[C@@H]3O[C@H]1C[C@H](N)[C@H](O)[C@H](C)O1 [doxorubicin]
- chromatographic logP [14]: 0.68
